Experimental findings from publication PMC7906907, “Targeting STAT3 by a small molecule suppresses pancreatic cancer progression” (Oncogene, 2021) are described below.

The target in one assay is T1, STAT3-SH2 (Homo sapiens, UniProt P40763).
T1 construct: made in house
Put plainly: Microscale thermophoresis (MST) assay, STAT3-SH2. It counts as binding. The source says:
Fig. 3 N4 interacts with the STAT3-SH2 domain and interferes with the STAT3-EGFR and STAT3-NF-κB interactions. […] C–E The binding between N4 and STAT3 was examined in (C) SPR and (D) MST experiments. His-STAT3^127-722 protein was purified and used to examine the affinity between STAT3 and N4. (E) The binding between N4 and STAT3^SH2 was confirmed in MST assays. STAT3-SH2 protein was purified and labeled. N4 was serially diluted and mixed with equal volumes of labeled STAT3^SH2 protein. The MST signal was measured, and the data were analyzed by MO analysis software. F, G The FLAG-tag and HA-tag STAT3 expression plasmid was transfected into 293 T cells, followed by the addition of the indicated concentrations of N4. After 24 h, cells were lysed, and immunoprecipitation experiments were performed as described in Materials and Methods. H N4 represses STAT3 dimerization in pancreatic cancer cells. I After a 24 h treatment with 2 μM N4, pancreatic cancer cells were stimulated with IL-6 for 30 min. Cell lysates were immunoprecipitated with STAT3 overnight. […]
The MST assay was previously described. Binding affinities of N4 with the purified His-STAT3-SH2 were measured using the Monolith NT.115 device (NanoTemper Technologies). […] The samples were then loaded into premium capillaries (NanoTemper Technologies) and measured using the Monolith NT.115 device. […]
In general terms: In MST a laser heats a spot of the sample, and binding alters the fluorescence response.

The test system of another assay is PANC-1 cells. Put plainly: PANC-1 shNC / shSTAT3 xenograft with drug withdrawal. Format: in vivo, Mice. The source says:
To provide further evidence that STAT3 is the direct target of N4, we constructed two STAT3 stable knockdown cell lines by the short hairpin RNA (shRNA) (Supplementary Fig. S10A), and the sequence of shRNA was list in Supplementary Table S3. […] At the meantime, the effect of drug withdrawal on tumor volume and weight was also examined. After 20 days of treatment, all the drug or vehicle were removed and the tumor was allowed to grow for another 12 days. […] Thus, N4 kept the suppression on tumor growth compared to vehicle group during the drug withdrawal period.
Supplementary Figure 10. STAT3 knockdown cells are resistant to N4 in vivo. (A) PANC-1 cells were transfected with shRNA that targeted STAT3 or negative control, and the knockdown efficiency was examined by western blot. (B) Mice bearing the PANC-1 cells within STAT3 stable knockdown (shSTAT3-1#) or negative control (shNC), and administration N4 or vehicle (control) every day by i.p. After 20 days treatment, the N4 and vehicle were removed for another 12 days. Then the mice were sacrificed and the tumor was removed and photographed (n=5 per group). (C) The tumor volume was measured every 3-4 days and the volume was calculated by the formula: length × width2 ×0.52, data are shown as mean ± SD, ****P < 0.0001 and n.s., not significant by one-way ANOVA followed by multiple-comparison tests. (D) After […]

For another assay, the system named is PAN02-luc. Put plainly: Orthotopic pancreatic cancer tumor model. It counts as in vivo, C57BL/6 mice. The method, then:
Fig. 7 N4 inhibits tumor growth in an orthotopic pancreatic cancer model. C57BL/6 mice were injected the tail of the pancreas with luciferase-expressing PAN02 cells (PAN02-luc) in matrigel and tumor growth was assessed (A) and quantified (B) by bioluminescent imaging weekly. Data represent the mean ± SD; *P < 0.05, **P < 0.01, ***P < 0.001, ****P < 0.0001, n.s. not significant by one-way ANOVA followed by multiple-comparison tests. (n = 5 mice per group) C After 4 weeks, mice were sacrificed and the pancreas were imaged. The tumor of pancreas were photographed (D) and weighted (E), scale bar, 0.5 cm.
Briefly, specimens of tumor tissue from xenograft models and orthotopic models were fixed with 4% paraformaldehyde solution at 4 °C overnight. […] Then, according to the manufacturer’s instructions (SK-4100; Vector laboratories), the avidin-biotin peroxidase complex was used, followed by colorimetric detection using DAB. Finally, hematoxylin was used to counterstain the sections and coverslips were mounted.
C57BL/6 mice, male, 4–6 week old were obtained from the Animal Center of East China Normal University. All animal experimental protocols were approved by the Animal Investigation Committee of the Institute of Biomedical Sciences, East China Normal University. PAN02 cells that stably expressed luciferase (PAN02-luc) were embedded in Matrigel (BD Biosciences) were injected with 5 × 10^5 in the tail of the pancreas. On the next day (day 0), the mice were subjected to bioluminescent imaging and divided into four groups according to the luciferase luminescence value. Mice were treated with intraperitoneal injection of indicated compound or drug. Tumor growth was analyzed once a week by an IVIS Imaging System (Xenogen Corporation, Alameda, CA) and end of study tumor weight was determined immediately postmortem. […] Images and measurements of bioluminescent signals were acquired and analyzed using Living Image and Xenogen software.

T1 sequence (P40763 580-670 limits assumed): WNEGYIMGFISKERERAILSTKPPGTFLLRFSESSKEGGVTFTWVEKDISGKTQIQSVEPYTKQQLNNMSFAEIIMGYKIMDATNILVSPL

For `COc1cc2c(cc1C(=O)Nc1cccc3cccnc13)CCC1C(C)(C)C(=O)C(C#N)=C[C@]21C` (some centres unmarked) [N4], the affinity at STAT3-SH2, expressed as Kd, was 1010 nM. Moreover, in the assay with PANC-1 cells (compared with control cells), the “sensitivity of STAT3 stable knockdown cells to treatment” value is “not sensitive”. The “increase in tumor volume during the drug withdrawal period” value in the assay with PANC-1 cells (shNC-N4 group, 20 days treatment i.p., then 12 days withdrawal) was found to be 249.49 mm^3. Further, in the assay with PAN02-luc (IHC of tumor tissue), the “expression of stromal cells marker α-SMA in vivo” value is reported as “drastically suppressed”, the “expression of vimentin in vivo” value is on record as “significantly suppressed” and the “number of TAM (F4/80+ macrophages)” value was “significantly decreased”. The “tumor volume suppressed compared with the control group” value in the assay on PAN02-luc (week 4, 10 mg/kg/d) was found to be 97.34%. The “tumor volume suppressed compared with the control group” value with PAN02-luc (week 4, 20 mg/kg/d) is recorded as 98.88%.
